# Results taken from US9376380B2 (University of Pittsburgh—Of the Commonwealth System of …, priority 2011, dated 2016).
# Like-named read-outs stand apart in the source and are kept apart here.
# Tests used:
# CB1 receptor = target: T1, CB1 receptor (Homo sapiens, UniProt P21554); test: [3H]CP-55,940 radioligand competition binding, CB1; conditions: [3H]CP-55,940 displacement; read-out: Ki (CB1)
# T1 construct: host or cells: cell membrane preparations
# Method: (§1) Briefly, the bioassay is carried out using the Perkin Elmer 96-well Top Counter. […] The procedure is as follows.
# (§2) In competition binding experiments, the tested compound dilutions are carried out in duplicate in TME buffer (25 mM Tris, 5 mM MgCl2, 1 mM EDTA) containing 0.1% (w/v) fatty acid free bovine serum albumin (BSA), pH 7.4. […] TME buffer and cell membrane preparations expressing CB receptors (5 μg per well) are added to a final volume of 200 μL. […] After the binding suspensions are incubated at 30° C. for 1 hr, the reaction is terminated by rapid filtration through microfiltration plates (Unifilter GF/B filterplate, PerkinElmer), followed by 5 washes with ice cold TME buffer containing 0.1% BSA on a Packard Filtermate Harvester (PerkinElmer). The plates are then dried overnight and 30 μl MicroScint 0 scintillation cocktail is added to each well of the dried filter plates. The bound radioactivity is then counted using a Perkin Elmer 96-well TopCounter. […] This assay is used for determination of the binding affinity parameters (Ki) of ligand-receptor interactions for the CB receptor.
# CB2 receptor = CB2 receptor (Homo sapiens, UniProt P34972); test: [3H]CP-55,940 radioligand competition binding, CB2; parameters: host or cells: cell membrane preparations; conditions: for SI: selectivity index for CB2: Ki(CB1)/Ki(CB2) ratio
# Sequence of CB2 receptor (P34972 whole entry): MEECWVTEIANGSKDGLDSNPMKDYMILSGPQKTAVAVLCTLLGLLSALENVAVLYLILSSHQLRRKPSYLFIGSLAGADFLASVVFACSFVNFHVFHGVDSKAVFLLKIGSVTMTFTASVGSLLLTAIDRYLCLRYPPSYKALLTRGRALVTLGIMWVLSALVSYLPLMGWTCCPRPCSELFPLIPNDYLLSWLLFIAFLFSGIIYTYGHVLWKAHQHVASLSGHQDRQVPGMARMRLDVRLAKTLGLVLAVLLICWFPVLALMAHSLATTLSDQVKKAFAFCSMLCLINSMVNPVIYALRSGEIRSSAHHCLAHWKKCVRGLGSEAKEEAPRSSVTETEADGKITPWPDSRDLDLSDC
# Method: as §1, §2
# [1] = [3H]CP-55,940 displacement, read-out: Ki (CB2)
# T1 sequence (P21554 whole entry): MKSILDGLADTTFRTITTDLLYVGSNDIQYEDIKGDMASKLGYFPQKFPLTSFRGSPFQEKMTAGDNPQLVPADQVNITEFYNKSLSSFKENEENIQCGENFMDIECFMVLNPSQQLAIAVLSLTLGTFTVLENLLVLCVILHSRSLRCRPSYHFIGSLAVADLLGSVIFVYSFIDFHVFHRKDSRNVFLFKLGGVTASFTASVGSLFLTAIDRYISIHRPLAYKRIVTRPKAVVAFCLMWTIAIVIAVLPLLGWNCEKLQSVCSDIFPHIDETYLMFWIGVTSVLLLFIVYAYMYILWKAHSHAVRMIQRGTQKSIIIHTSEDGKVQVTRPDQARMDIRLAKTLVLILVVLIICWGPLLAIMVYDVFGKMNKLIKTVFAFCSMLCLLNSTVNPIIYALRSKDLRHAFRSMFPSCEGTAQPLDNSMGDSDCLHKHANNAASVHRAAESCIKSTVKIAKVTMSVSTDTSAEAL
SMILES,Ki (CB1 receptor) [nM],Ki (CB2 receptor; [1]) [nM],SI: selectivity index for CB2 (CB2 receptor),Ki (CB2 receptor) [nM]
"CCN(CC)c1ccc(CN(c2ccc(C)cc2)S(=O)(=O)c2ccc(Cl)cc2)cc1 [Compound 92, 4-Chloro-N-(4-(diethylamino)benzyl)-N-(p-tolyl)benzenesulfonamide]",412,3,,
"CCN(CC)c1ccc(CN(C(=O)C2CCCCC2)c2ccc(C)cc2)cc1 [Compound 99, N-(4-(Diethylamino)benzyl)-N-(p-tolyl)cyclohexanecarboxamide]",202,222,0.9,
"CCN(CC)c1ccc(CN(C(=O)Cc2ccc(Cl)cc2)c2ccc(C)cc2)cc1 [Compound 98, 2-(4-Chlorophenyl)-N-(4-(diethylamino)benzyl)-N-(p-tolyl)acetamide]",3200,107,29,
"CCN(CC)c1ccc(CN(c2ccc(C)cc2)S(=O)(=O)c2ccccc2)cc1 [Compound 90, N-(4-(Diethylamino)benzyl)-N-(p-tolyl)benzenesulfonamide]",514,3.4,151,
"CCN(CC)c1ccc(CN(C(=O)Cc2ccc(Cl)cc2)C23CC4CC(CC(C4)C2)C3)cc1 [Compound 65, N-((3s,5s,7s)-Adamantan-1-yl)-2-(4-chlorophenyl)-N-(4-(diethylamino)benzyl)acetamide]",> 20000,,,
"O=C(Cc1ccccc1)NC(/C=C/c1ccccc1)NC(=O)Cc1ccccc1 [Compound 46, (E)-N,N′-(3-Phenylprop-2-ene-1,1-diyl)bis(2-phenylacetamide)]",> 20000,,,
"O=C(Cc1ccccc1)NC(CCc1ccccc1)NC(=O)Cc1ccccc1 [Compound 45, N,N′-(3-Phenylpropane-1,1-diyl)bis(2-phenylacetamide)]",> 20000,9320,,
"CCN(CC)c1ccc(CN(C(=O)C2CCCCC2)c2ccc(Cl)cc2)cc1 [Compound 89, N-(4-Chlorophenyl)-N-(4-(diethylamino)benzyl)cyclohexanecarboxamide]",> 20000,164,121,
"CCN(CC)c1ccc(CN(c2ccc(Cl)cc2)S(=O)(=O)c2ccc(F)cc2)cc1 [Compound 82, N-(4-Chlorophenyl)-N-(4-(diethylamino)benzyl)-4-fluorobenzenesulfonamide]",1130,73,15,
"CCN(CC)c1ccc(CN(C(=O)Cc2ccccc2)c2ccc(C)cc2)cc1 [Compound 97, N-(4-(Diethylamino)benzyl)-2-phenyl-N-(p-tolyl)acetamide]",> 20000,72,>277,
"CCN(CC)c1ccc(CN(C(=O)C2CCCCC2)C23CC4CC(CC(C4)C2)C3)cc1 [Compound 63, N-((3s,5s,7s)-Adamantan-1-yl)-N-(4-(diethylamino)benzyl)cyclohexanecarboxamide]",> 20000,,>571,35
"Cc1ccc(C(NC(=O)Cc2ccccc2)NC(=O)Cc2ccccc2)cc1 [Compound 8, N,N′-(p-tolylmethylene)bis(2-phenylacetamide)]",109,494,,
"CCN(CC)c1ccc(CN(c2ccc(Cl)cc2)S(=O)(=O)c2cccc(C)c2)cc1 [Compound 86, N-(4-Chlorophenyl)-N-(4-(diethylamino)benzyl)-3-methylbenzenesulfonamide]",866,2.8,,
"CCN(CC)c1ccc(CN(C23CC4CC(CC(C4)C2)C3)S(=O)(=O)c2ccc(F)cc2)cc1 [Compound 57, N-((3s,5s,7s)-Adamantan-1-yl)-N-(4-(diethylamino)benzyl)-4-fluorobenzenesulfonamide]",4270,,,25
"CCN(CC)c1ccc(CN(C(=O)Cc2ccccc2)C23CC4CC(CC(C4)C2)C3)cc1 [Compound 66, N-((3s,5s,7s)-Adamantan-1-yl)-N-(4-(diethylamino)benzyl)-2-phenylacetamide]",> 20000,60,>333,
"CCN(CC)c1ccc(CN(c2ccc(Cl)cc2)S(=O)(=O)c2ccccc2)cc1 [Compound 81, N-(4-Chlorophenyl)-N-(4-(diethylamino)benzyl)benzenesulfonamide]",1770,,,
"O=C(Cc1ccc(Cl)cc1)NC(NC(=O)Cc1ccc(Cl)cc1)c1ccccc1C(F)(F)F [Compound 27, N,N′-((2-(trifluoromethyl)phenyl)methylene)bis(2-(4-chlorophenyl)acetamide)]",,158,>127,
"O=C(Cc1ccccc1)NC(NC(=O)Cc1ccccc1)c1ccccc1C(F)(F)F [Compound 13, N,N′-((2-(trifluoromethyl)phenyl)methylene)bis(2-phenylacetamide)]",,11800,,
"O=C(Cc1ccccc1)NC(NC(=O)Cc1ccccc1)c1ccc(Cl)cc1 [Compound 6, N,N′-((4-chlorophenyl)methylene)bis(2-phenylacetamide)]",,3080,,
"O=C(Cc1ccccc1)NC(Cc1ccccc1)NC(=O)Cc1ccccc1 [Compound 37, N,N′-(2-phenylethane-1,1-diyl)bis(2-phenylacetamide)]",,> 20000,,
"O=C(Cc1ccc(Cl)cc1)NC(NC(=O)Cc1ccc(Cl)cc1)c1ccc([N+](=O)[O-])cc1 [Compound 29, N,N′-((4-nitrophenyl)methylene)bis(2-(4-chlorophenyl)acetamide)]",,> 20000,,
"O=C(Cc1ccccc1)NC(Cc1ccccc1)NC(=O)Cc1ccccc1 [Compound 44, N,N′-(2-Phenylethane-1,1-diyl)bis(2-phenylacetamide)]",> 20000,,,
"CCCCCCCN(Cc1ccc(N(CC)CC)cc1)C(=O)C1CCCCC1 [Compound 79, N-(4-(Diethylamino)benzyl)-N-heptylcyclohexanecarboxamide]",,212,,
"COc1ccc(C(NC(=O)Cc2ccccc2)NC(=O)Cc2ccccc2)cc1 [Compound 10, N,N′-((4-methoxyphenyl)methylene)bis(2-phenylacetamide)]",,783,>26,
"CCN(CC)c1ccc(CN(C23CC4CC(CC(C4)C2)C3)S(=O)(=O)c2ccc(C)cc2)cc1 [Compound 60, N-((3s,5s,7s)-Adamantan-1-yl)-N-(4-(diethylamino)benzyl)-4-methylbenzenesulfonamide]",> 20000,,,
"O=C(Cc1ccccc1)NC(NC(=O)Cc1ccccc1)c1ccccc1 [Compound 2, N,N′-(phenylmethylene)bis(2-phenylacetamide)]",,9930,,
"O=C(Cc1ccccc1)NC(NC(=O)Cc1ccccc1)c1ccccc1F [Compound 3, N,N′-((2-fluorophenyl)methylene)bis(2-phenylacetamide)]",,35300,,
"O=C(Cc1ccc(Cl)cc1)NC(NC(=O)Cc1ccc(Cl)cc1)c1ccc(Cl)cc1 [Compound 24, N,N′-((4-chlorophenyl)methylene)bis(2-(4-chlorophenyl)acetamide)]",,154,>130,
"Cc1ccc(C(NC(=O)Cc2ccc(C(F)(F)F)cc2)NC(=O)Cc2ccc(C(F)(F)F)cc2)cc1 [Compound 34, N,N′-(p-tolylmethylene)bis(2-(4-(trifluoromethyl)phenyl)acetamide)]",,> 20000,,
"Cc1ccc(C(NC(=O)Cc2ccc(Cl)cc2)NC(=O)Cc2ccc(Cl)cc2)cc1 [Compound 25, N,N′-(p-tolylmethylene)bis(2-(4-chlorophenyl)acetamide)]",,462,>43,
